Calls of active or inactive are those of the source. The rule behind the calls is not given here.
Columns and labels:
[1] = biological target: Histamine H3 receptor (Homo sapiens, UniProt Q9Y5N1); assay: Antagonist activity at human H3 receptor by TR-FRET assay; format: functional
[2] = biological target: T1, Amyloid-beta precursor protein (Homo sapiens, UniProt P05067); assay: Inhibition of amyloid beta (1 to 42) (unknown origin) self-induced aggregation incubated for 24 hrs by Thioflavin T based fluorometric assay
[3] = biological target: T1, Amyloid-beta precursor protein; assay: Inhibition of amyloid beta (1 to 42) (unknown origin) self-induced aggregation at 20 uM incubated for 24 hrs by Thioflavin T based fluorometric assay relative to control
[4] = Antioxidant activity assessed as trolox equivalent antioxidant capacity; format: functional
[5] = Metal chelating activity assessed as compound-Cu2+ complex formation by UV-Vis spectroscopic analysis
[6] = Metal chelating activity assessed as compound-Fe3+ complex formation by UV-Vis spectroscopic analysis
[7] = biological target: T1, Amyloid-beta precursor protein; assay: Inhibition of amyloid beta (1 to 42) (unknown origin) self-induced aggregation at 20 uM incubated for 24 hrs by transmission electron microscopic analysis
[8] = biological target: T1, Amyloid-beta precursor protein; assay: Disaggregation of self-induced amyloid beta (1 to 42) (unknown origin) preformed fibrils assessed as reduction in fluorescence intensity at 20 uM after 24 hrs by thioflavin-T fluorescence assay relative to control; set-up: scale not given: the % may be the effect or the level left
[9] = biological target: T1, Amyloid-beta precursor protein; assay: Disaggregation of self-induced amyloid beta (1 to 42) (unknown origin) preformed fibrils at 20 uM measured after 24 hrs by transmission electron microscopic analysis
[10] = Metal chelating activity assessed as formation of Cu2+-compound complex stoichiometry ratio of 2:1 in presence of CuCl2 by Job's plot analysis
[11] = Metal chelating activity assessed as mole fraction required to show 2:1 stoichiometry ratio for compound-Cu2+ complex formation in presence of CuCl2 by Job's plot analysis
[12] = Inhibition of copper-induced amyloid beta (1 to 42) (unknown origin) aggregation at 50 uM measured after 24 hrs by thioflavin T based fluorescence assay
[13] = Inhibition of copper-induced amyloid beta (1 to 42) (unknown origin) aggregation at 50 uM measured after 24 hrs by transmission electron microscopic analysis
[14] = Disaggregation of copper-induced amyloid beta (1 to 42) (unknown origin) preformed fibrils at 50 uM measured after 24 hrs by ThT fluorescence assay
[15] = Disaggregation of copper-induced amyloid beta (1 to 42) (unknown origin) preformed fibrils at 50 uM measured after 24 hrs by transmission electron microscopic analysis

Chain of Histamine H3 receptor (Q9Y5N1 whole entry): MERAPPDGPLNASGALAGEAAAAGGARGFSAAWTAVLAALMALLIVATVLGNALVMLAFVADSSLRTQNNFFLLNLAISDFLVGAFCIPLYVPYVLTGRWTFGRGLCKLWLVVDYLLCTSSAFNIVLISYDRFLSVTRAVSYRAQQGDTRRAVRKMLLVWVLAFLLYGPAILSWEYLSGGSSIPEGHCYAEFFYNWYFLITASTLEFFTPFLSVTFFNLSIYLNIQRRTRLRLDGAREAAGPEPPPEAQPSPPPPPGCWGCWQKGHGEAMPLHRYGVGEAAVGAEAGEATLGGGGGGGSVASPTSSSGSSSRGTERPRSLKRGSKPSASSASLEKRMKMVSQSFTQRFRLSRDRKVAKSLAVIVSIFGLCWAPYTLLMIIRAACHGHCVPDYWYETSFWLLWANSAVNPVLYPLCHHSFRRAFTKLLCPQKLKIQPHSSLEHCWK
T1 sequence (P05067 whole entry): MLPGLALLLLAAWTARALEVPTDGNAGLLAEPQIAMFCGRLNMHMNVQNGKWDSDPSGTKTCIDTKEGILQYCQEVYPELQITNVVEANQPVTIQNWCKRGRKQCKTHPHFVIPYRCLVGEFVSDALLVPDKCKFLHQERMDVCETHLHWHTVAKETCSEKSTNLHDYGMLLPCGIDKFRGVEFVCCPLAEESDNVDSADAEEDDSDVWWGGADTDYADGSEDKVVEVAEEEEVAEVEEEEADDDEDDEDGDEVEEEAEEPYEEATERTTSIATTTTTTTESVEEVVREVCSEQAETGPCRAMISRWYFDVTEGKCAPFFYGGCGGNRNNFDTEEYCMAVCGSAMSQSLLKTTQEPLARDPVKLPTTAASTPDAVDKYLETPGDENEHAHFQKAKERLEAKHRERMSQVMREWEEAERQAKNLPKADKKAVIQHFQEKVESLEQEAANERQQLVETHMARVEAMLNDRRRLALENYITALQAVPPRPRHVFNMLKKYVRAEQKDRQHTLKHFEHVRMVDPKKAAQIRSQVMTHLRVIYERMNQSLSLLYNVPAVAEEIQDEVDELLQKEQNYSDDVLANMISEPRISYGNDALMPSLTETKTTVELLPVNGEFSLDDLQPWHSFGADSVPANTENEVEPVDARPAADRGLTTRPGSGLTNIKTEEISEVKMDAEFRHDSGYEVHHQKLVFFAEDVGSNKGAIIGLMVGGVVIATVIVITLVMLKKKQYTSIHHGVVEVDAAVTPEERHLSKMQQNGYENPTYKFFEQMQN

SMILES | IC50 [1] | IC50 [2] | inhibition [3] | Activity [4] | Activity [5] | Activity [6] | further results
CN1CCN(CCCOc2ccc(/C=C/c3cc(=O)c(O)cn3C)cc2)CC1 | 353 nM | 6020 nM | 75.7% | 0.73 | – | – | –
O=c1cc(/C=C/c2ccc(OCCCN3CCCC3)cc2)occ1O | 8.25 nM | 2240 nM | 91.4% | 4.97 | Active | Active | inhibition [7]: Active; Activity [8]: 35.1%; Activity [9]: Active; Activity [10]: Active; Activity (mole fraction) [11]: 0.671; inhibition [12]: Active; inhibition [13]: Active; Activity [14]: Active; Activity [15]: Active
Cc1c(C)c2c(c(C)c1O)CCC(C)(C(=O)O)O2 (centres undefined) | – | – | – | 1 | – | – | –
Oc1cccc2ccc(/C=C/c3ccc(OCCCN4CCCC4)cc3)nc12 | 16 nM | – | 17.6% | 0.73 | – | – | –
CCn1cc(O)c(=O)cc1/C=C/c1ccc(OCCCN2CCCCC2)cc1 | 5.07 nM | 3050 nM | 86.8% | 1.78 | Active | Active | –
O=c1cc(/C=C/c2ccc(O)cc2)occ1O | – | – | – | 2.03 | – | – | –
O=c1cc(/C=C/c2ccc(OCCCN3CCCCC3)cc2)occ1O | 2.74 nM | 3260 nM | 90.8% | 5.22 | Active | Active | inhibition [7]: Active; Activity [8]: 29.4%; Activity [9]: Active; Activity [10]: Active; Activity (mole fraction) [11]: 0.682; inhibition [12]: Active; inhibition [13]: Active; Activity [14]: Active; Activity [15]: Active
Cn1cc(O)c(=O)cc1/C=C/c1ccc(OCCCN2CCOCC2)cc1 | 30.1 nM | 5320 nM | 71.9% | 1.35 | – | – | –
Cn1cc(O)c(=O)cc1/C=C/c1ccc(OCCCN2CCCCC2)cc1 | 4.74 nM | 2570 nM | 87% | 1.23 | Active | Active | –
CCN(CC)CCCOc1ccc(/C=C/c2cc(=O)c(O)co2)cc1 | 16.9 nM | 3950 nM | 94.6% | 5.08 | Active | Active | –
CN1CCN(CCCOc2ccc(/C=C/c3cc(=O)c(O)co3)cc2)CC1 | 178 nM | 5540 nM | 89.8% | 4.05 | – | – | –
Oc1cccc2ccc(/C=C/c3ccc(OCCCN4CCCCC4)cc3)nc12 | 14.5 nM | – | 15.7% | 0.96 | – | – | –
Cn1cc(O)c(=O)cc1/C=C/c1ccc(OCCCN2CCCC2)cc1 | 3.37 nM | 3290 nM | 85.4% | 1.28 | Active | Active | –
O=c1cc(/C=C/c2ccc(OCCCN3CCOCC3)cc2)occ1O | 68.8 nM | 4120 nM | 93.3% | 4.39 | – | – | –
CCN(CC)CCCOc1ccc(/C=C/c2cc(=O)c(O)cn2C)cc1 | 7.06 nM | 5380 nM | 85% | 1.43 | Active | Active | –
CN(C)CCCOc1ccc(/C=C/c2cc(=O)c(O)cn2C)cc1 | 85.4 nM | 6180 nM | 70.4% | 1.34 | – | – | –
Cc1oc(/C=C/c2ccc(OCCCN3CCCCC3)cc2)cc(=O)c1O | 2.65 nM | 6260 nM | 74.8% | 1.74 | – | – | –
COc1cc(/C=C/C(=O)CC(=O)/C=C/c2ccc(O)c(OC)c2)ccc1O | – | – | – | 1.11 | – | – | –
CCN(CC)CCCC(C)Nc1ccnc2cc(Cl)ccc12 (centres undefined) | – | – | – | – | – | – | Activity [14]: Active; Activity [15]: Active
CN(C)CCCOc1ccc(/C=C/c2cc(=O)c(O)co2)cc1 | 104 nM | 4510 nM | 76.7% | 2.21 | – | – | –
CCn1cc(O)c(=O)cc1/C=C/c1ccc(OCCCN2CCCC2)cc1 | 2.18 nM | 2070 nM | 97.6% | 1.43 | Active | Active | –
Cc1oc(/C=C/c2ccc(OCCCN3CCCC3)cc2)cc(=O)c1O | 4.91 nM | 7010 nM | 74.7% | 2.12 | – | – | –
